The text below walks through data of US6638546B2 (Council of Scientific & Industrial Research, priority 2001, dated 2003).

Structures are written as SMILES. Entries after “also recorded” stand apart in the source; their conditions may differ.

As usually defined, the ED50 is the midpoint of the dose-response relation.

Data set [1] addresses T1, M2 receptors (Cavia porcellus, UniProt H0VRN8).
T1 construct: The atria beat spontaneously; from tissue; host or cells: isolated guinea pig atria
T1 sequence (H0VRN8 1-466): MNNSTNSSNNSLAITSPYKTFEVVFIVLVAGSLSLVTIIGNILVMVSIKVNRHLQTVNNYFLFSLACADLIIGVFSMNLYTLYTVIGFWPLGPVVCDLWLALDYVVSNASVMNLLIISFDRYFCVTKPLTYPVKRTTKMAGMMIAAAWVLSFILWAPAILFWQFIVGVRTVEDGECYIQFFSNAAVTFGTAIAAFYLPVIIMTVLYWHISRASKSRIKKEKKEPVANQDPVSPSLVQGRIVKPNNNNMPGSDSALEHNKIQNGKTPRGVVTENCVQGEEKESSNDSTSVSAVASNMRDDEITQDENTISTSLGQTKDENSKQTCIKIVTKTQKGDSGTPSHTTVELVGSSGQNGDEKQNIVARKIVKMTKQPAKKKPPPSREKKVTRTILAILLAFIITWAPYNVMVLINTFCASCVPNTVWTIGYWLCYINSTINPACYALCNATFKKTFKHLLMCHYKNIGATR
The data set is described as follows: Dose response curve of acetylcholine on isolated guinea pig atria. The conditions noted are these: for Inhibitory effect on rate and force of contraction of guinea pig atria (M2 block): dosage range used. As for the experimental part: The in vitro experiments were performed on atria, ileum and bladder tissues of guinea pig. Atria were removed, and one end was tied to an oxygen tube and the other end was fixed to a Force transducer (Model T-305), which is connected to a physiograph (Biodevices Physiograph). The atria beat spontaneously, and after equilibration (30 minutes), resting tension was adjusted to the peak of the length tension curve followed by a re-equilibration period (30 minutes). Cumulative concentration response curves to acetylcholine were obtained before and after addition of increasing concentrations of the compound (doses said in Example 5). Responses were expressed as a percentage of the maximal inhibition of atrial rate induced by acetylcholine in absence of the antagonist (compound).

The test system of data set [2] is Salmonella. The conditions noted are these: Salmonella and mammalian microsome assays; cited from earlier work.
In data set [3] the target is T2, M1 receptors (Rattus norvegicus, UniProt P08482).
T2 construct: from tissue; host or cells: living albino rats (stomach)
T2 sequence (P08482 1-460): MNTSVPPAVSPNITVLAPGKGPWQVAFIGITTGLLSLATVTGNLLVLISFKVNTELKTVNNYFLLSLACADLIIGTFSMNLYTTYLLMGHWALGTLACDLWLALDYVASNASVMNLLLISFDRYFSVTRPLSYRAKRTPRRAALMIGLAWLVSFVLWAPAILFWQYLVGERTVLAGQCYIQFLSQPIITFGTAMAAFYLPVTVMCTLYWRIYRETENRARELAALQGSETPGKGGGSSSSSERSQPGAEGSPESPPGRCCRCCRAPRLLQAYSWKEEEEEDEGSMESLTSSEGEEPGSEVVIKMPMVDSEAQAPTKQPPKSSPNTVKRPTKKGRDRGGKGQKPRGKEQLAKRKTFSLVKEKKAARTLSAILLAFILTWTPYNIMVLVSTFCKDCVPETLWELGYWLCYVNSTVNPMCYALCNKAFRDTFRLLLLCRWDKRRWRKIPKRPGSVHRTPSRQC
The data set is described as follows: Basal gastric acidity by pyloric ligation in rats. The format is in vivo. To be noted: for % inhibition of gastric acidity: 15 min before pyloric ligation. As for the experimental part: These activities were tested upon rats. […] For comparative purposes, the doses of atropine used for testing gastric acidity were 0.01 milligram per kilogram of the body weight of rat injected subcutaneously (0.01 mg/kg s.c), 0.05 milligram per kilogram of the body weight of rat injected subcutaneously (0.05 mg/kg s.c), 0.10 milligram per kilogram of the body weight of rat injected subcutaneously (0.10 mg/kg s.c.).
The in vivo experiments for gastric acidity testing were performed by pyloric ligation on rats. Albino rats of either sex weighing 190-250 grams were randomly divided into groups of 6, with a group of 6 rats serving as control. All the rats were starved for 48 hours prior to the experiment. After the first 24 hours, they were given access to 8% sucrose in 0.2% sodium chloride for 8 hours. Water was permitted adlibitum except during the 8 hours of sucrose treatment and 2 hours previous to pyloric ligation.
Basal gastric acidity was determined by pyloric ligation under ether anaesthesia followed by gastric lavage with normal saline. […] Three hours later the animals were killed and the stomach was tied at the oesophageal junction and removed. The contents were collected by cutting along the greater curvature and the free acidity was determined by titration against 0.01 normal NaOH using Topfers reagent as indicator.

The conditions of data set [4]: rat, in vivo; cited from earlier work.
Data set [5] has as its target T3, M3 receptors (Cavia porcellus, UniProt H0W1Z3).
T3 construct: from tissue; host or cells: guinea pig longitudinal ileal muscle; guinea pig bladder detrusor strips
The data set is described as follows: Dose response curve of acetylcholine on guinea pig bladder detrusor strips. To be noted: 98, 196 and 392×10^−6 moles per ml of bath. An excerpt:
(§1) The three doses prepared and applied were 98×10^−6 moles per milliliter of bath concentration; 196×10^−6 moles per milliliter of bath concentration and 392×10^−6 moles per milliliter of bath concentration. For comparative purposes, the three doses of atropine used were 35×10^−6 moles per milliliter of bath concentration; 86×10^−6 moles per milliliter of bath concentration and 173×10^−[…] moles per milliliter of bath concentration.
The longitudinal bladder detrusor strips were suspended under a resting tension (0.5 g) in aerated Tyrode physiological solution. Tension was measured with an isometric force transducer (FT 305), and responses were recorded on a Biodevices Physiograph. Antimuscarinic activity was determined from concentration response curves to acetylcholine in the absence or presence of increasing concentrations of the said compound. Contractile responses were expressed as a percentage of the maximum contraction elicited by acetylcholine in the absence of the said compound.

The target of data set [6] is T3, M3 receptors. Description: Dose response curve of acetylcholine on isolated guinea pig ileum. To be noted: 98, 196 and 392×10^−6 moles per ml of bath.
Text: as §1
The longitudinal ileal muscle was suspended in an organ bath in aerated Tyrode solution. […]. Doses of the compound were as given in Example 5.

T3 sequence (H0W1Z3 1-590): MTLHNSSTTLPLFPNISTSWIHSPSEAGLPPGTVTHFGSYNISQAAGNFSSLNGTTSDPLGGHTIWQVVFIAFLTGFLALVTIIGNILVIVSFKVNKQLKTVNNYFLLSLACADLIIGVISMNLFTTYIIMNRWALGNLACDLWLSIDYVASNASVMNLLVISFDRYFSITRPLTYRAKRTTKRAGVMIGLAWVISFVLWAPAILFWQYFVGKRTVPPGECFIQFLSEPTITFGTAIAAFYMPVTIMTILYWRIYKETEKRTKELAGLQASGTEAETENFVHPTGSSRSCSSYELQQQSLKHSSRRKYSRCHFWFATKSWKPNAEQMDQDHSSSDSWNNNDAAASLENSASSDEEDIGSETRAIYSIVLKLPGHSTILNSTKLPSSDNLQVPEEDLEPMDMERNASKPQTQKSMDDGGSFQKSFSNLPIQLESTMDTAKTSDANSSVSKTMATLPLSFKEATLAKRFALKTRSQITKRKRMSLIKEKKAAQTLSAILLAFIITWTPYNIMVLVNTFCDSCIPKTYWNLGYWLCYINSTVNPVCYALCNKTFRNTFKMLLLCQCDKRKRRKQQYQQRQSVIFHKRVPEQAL

In the case of `CCCCCCCCCCCCCCCC(=O)OC` [methyl palmitate], the “Inotropic or chronotropic effect on its own on guinea pig atrium” value in data set [1] (20, 40, 196 and 392×10^−6 moles per ml of bath) is “did not produce any positive inotropic or chronotropic effect”. Further, the “Inhibitory effect on rate and force of contraction of guinea pig atria (M2 block)” value in data set [1] is given as “had no such effect in the dosage range used; also recorded: does not block M2 receptors”. Further, in data set [2], the Mutagenic effect entry is listed as “devoid of any mutagenic effect”. Also, the “% inhibition of gastric acidity” value in data set [3] (rat, 1 mg/kg s.c.) worked out at 50.72%; in data set [3] (rat, 3 mg/kg s.c., 3 mg/kg), 55%; in data set [3] (rat, 5 mg/kg s.c., 5 mg/kg), 91.5%. Besides, in data set [3] (rat, 1, 3 & 5 mg/kg s.c.), the “Effect on basal gastric (free) acidity” value was “decreased free acidity; also recorded: inhibited basal gastric acidity dose dependently”. Besides, the ED50 in data set [3] (sc, rat, s.c., read-out: ED50 for inhibition of gastric acidity) amounted to 2.74 mg/kg. Also, the Oral toxicity result in data set [4] is reported as “nontoxic”. Besides, the “Antagonism of acetylcholine on bladder detrusor strips” value in data set [5] was “antagonised the effect of acetylcholine in a dose-dependent and competitive manner”. Further, in data set [6], the “Antagonism of acetylcholine contractions of ileum smooth muscle” value is recorded as “antagonised contractions of smooth muscle of the ileum”.
As for `CN1[C@@H]2CC[C@H]1C[C@@H](OC(=O)C(CO)c1ccccc1)C2` (stereo partly drawn) [Atropine, reference compound], the “Inhibitory effect on rate and force of contraction of guinea pig atria (M2 block)” value in data set [1] was “inhibitory effect on all the three receptors”.
